# Test results reported in patent US11084824B2, “Pyrazolopyrimidine derivatives, preparation method thereof, and pharmaceutical composition for use in preventing or treating cancer, autoimmune disease and brain disease containing the same as an active ingredient” (Korea Research Institute of Chemical Technology, priority 2017, dated 2021).
# How the values were obtained:
# [1] = target: Bruton's tyrosine kinase (BTK) (Homo sapiens (Human), UniProt Q06187); test: BTK enzyme inhibition assay (Cisbio HTRF kit); type: biochemical; details: 30 minutes reaction, fluorescence 665 nm/620 nm
# Method: BTK enzyme evaluation with each compound of examples of the invention was performed by using BTK enzyme inhibition diagnosis kit (Cisbio, Codolet, France). […] Then, EDTA (ethylenediaminetetraacetic acid) was added thereto in order to terminate the reaction. At this time, the EDTA solution contained curopium-containing antibody (antiphosphoresidue antibody) and straptavidin-XL665 (SA-XL665, Cisbio). After incubation for 1 hour, fluorescence was measured. The emission values of 665 nm and 620 nm excited at 337 nm were measured with Envision reader. IC50 values were determined using GraphPad prism (version 5). Herein, the curve indicates a nonlinear regression model, which was determined by logarithmic functions and reaction values.
# TMD8 cells = test: TMD8 cell growth inhibition (WST-1, 72 hours); type: cell-based; details: Homo sapiens, TMD8 ABC type DLBCL cell line, WST-1, absorbance 450 nm
# Method: TDM-8 cells, the ABC (activated B-cell) type DLBCL (diffuse large B cell lymphoma) cell line sensitive to BTK signaling, were seeded in a 96-well plate at 30% confluency. Then, the compounds of the invention were treated thereto at different concentrations. 72 hours later, WST-1 reagent was added thereto. One hour later, absorbance was measured at 450 nm by using a spectramax spectrophotometer.
# Sequence of Bruton's tyrosine kinase (BTK) (Q06187 whole entry): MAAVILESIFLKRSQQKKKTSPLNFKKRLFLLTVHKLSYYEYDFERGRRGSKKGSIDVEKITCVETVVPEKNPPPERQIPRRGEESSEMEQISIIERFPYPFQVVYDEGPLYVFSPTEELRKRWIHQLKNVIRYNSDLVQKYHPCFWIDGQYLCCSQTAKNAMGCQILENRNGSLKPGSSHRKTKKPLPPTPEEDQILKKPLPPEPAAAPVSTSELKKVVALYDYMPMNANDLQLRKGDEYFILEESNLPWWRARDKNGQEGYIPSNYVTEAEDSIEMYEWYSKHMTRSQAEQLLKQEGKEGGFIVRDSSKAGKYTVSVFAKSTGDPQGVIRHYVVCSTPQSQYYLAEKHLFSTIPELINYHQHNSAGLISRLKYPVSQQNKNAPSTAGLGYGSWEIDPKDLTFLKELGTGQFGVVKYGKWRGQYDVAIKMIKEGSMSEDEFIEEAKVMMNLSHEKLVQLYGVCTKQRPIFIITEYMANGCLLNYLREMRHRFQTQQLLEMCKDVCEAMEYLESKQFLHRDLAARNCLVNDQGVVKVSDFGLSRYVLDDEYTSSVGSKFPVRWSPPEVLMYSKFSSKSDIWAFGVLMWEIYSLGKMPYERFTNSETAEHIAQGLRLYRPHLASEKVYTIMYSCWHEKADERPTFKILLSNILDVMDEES
SMILES,IC50 [1] [nM],IC50 (TMD8 cells) [nM]
"Cc1cccc(C)c1Nc1nn(C)c2nc(Nc3ccc(C4CCNCC4)cc3)ncc12 [Comparative Example 1, N^3-(2,6-dimethylphenyl)-1-methyl-N^6-(4-(piperidine-4-yl)phenyl)-1H-pyrazolo[3,4-d]pyrimidine-3,6-diamine, reference compound]",10,–
"CC(=O)N1CCC(c2ccc(Nc3ncc4c(Nc5c(C)cccc5C)nn(C)c4n3)cc2)CC1 [Comparative Example 2, 1-(4-(4-(3-(2,6-dimethylphenylamino)-1-methyl-1H-pyrazolo[3,4-d]pyrimidine-6-ylamino)phenyl)piperidine-1-yl)ethaneone, reference compound]",20,–
"Cn1nc(Nc2c(Cl)cccc2Cl)c2cnc(Nc3ccc4c(c3)CN(C(=O)C(F)(F)F)CC4)nc21 [Example 11, 1-(7-(3-(2,6-dichlorophenylamino)-1-methyl-1H-pyrazolo[3,4-d]pyrimidine-6-ylamino)-3,4-dihydroisoquinoline-2(1H)-yl)-2,2,2-trifluoroethaneone]",386,243
"Cc1cccc(C)c1Nc1nn(C)c2nc(Nc3ccc4c(c3)CN(C)CC4)ncc12 [Example 17, N^3-(2,6-dimethylphenyl)-1-methyl-N^6-(2-methyl-1,2,3,4-tetrahydroisoquinoline-7-yl)-1H-pyrazolo[3,4-d]pyrimidine-3,6-diamine]",1.2,36
"Cc1cccc(C)c1Nc1nn(C)c2nc(Nc3ccc4c(c3)COCC4)ncc12 [Example 18, N^3(2,6-dimethylphenyl)-N^6 (isochroman-7-yl)-1-methyl-1H-pyrazolo[3,4-d]pyrimidine-3,6-diamine]",0.5,134
"Cc1cccc(C)c1Nc1n[nH]c2nc(Nc3ccc4c(c3)CNCC4)ncc12 [Example 19, N3-(2,6-dimethylphenyl)-N6-(1,2,3,4-tetrahydroisoquinoline-7-yl)-1H-pyrazolo[3,4-d]pyrimidine-3,6-diamine]",–,49.4
"Cc1cccc(C)c1Nc1nn(C)c2nc(Nc3ccc4c(c3)C(C)NCC4)ncc12 (centres unmarked) [Example 20, N^3-(2,6-dimethylphenyl)-1-methyl-N^6-(1-methyl-1,2,3,4-tetrahydroisoquinoline-7-yl)-1H-pyrazolo[3,4-d]pyrimidine-3,6-diamine]",0.5,8.28
"Cc1cccc(C)c1Nc1nn(C)c2nc(Nc3ccc4c(c3)CN(C(C)C)CC4)ncc12 [Example 21, N-(2,6-dimethylphenyl)-N^6 (2-isopropyl-1,2,3,4-tetrahydroisoquinoline-7-yl)-1-methyl-1H-pyrazolo[3,4-d]pyrimidine-3,6-diamine]",0.2,139
"Cc1cccc(C)c1Nc1nn(C)c2nc(Nc3ccc4c(c3)CN(C(=O)CO)CC4)ncc12 [Example 22, 1-(7-(3-(2,6-dimethylphenylamino)-1-methyl-1H-pyrazolo[3,4-d]pyrimidine-6-ylamino)-3,4-dihydroisoquinoline-2(1H)-yl)-2-hydroxyethanone]",0.4,46.4
"Cc1cccc(C)c1Nc1nn(C)c2nc(Nc3ccc4c(c3)CN(C(=O)C3CC3)CC4)ncc12 [Example 23, cyclopropyl(7-(3-(2,6-dimethylphenylamino)-1-methyl-1H-pyrazolo[3,4-d]pyrimidine-6-ylamino)-3,4-dihydroisoquinoline-2(1H)-yl)methanone]",0.3,87.9
"Cc1cccc(C)c1Nc1nn(C(C)C)c2nc(Nc3ccc4c(c3)CNCC4)ncc12 [Example 27, N^3 (2,6-dimethylphenyl)-1-isopropyl-N6-(1,2,3,4-tetrahydroisoquinoline-7-yl)-1H-pyrazolo[3,4-d]pyrimidine-3,6-diamine]",–,35.4
"Cc1cc(C)c(Cl)c(Nc2nn(C)c3nc(Nc4ccc5c(c4)CNCC5)ncc23)c1 [Example 38, N^3-(2-chloro-3,5-dimethylphenyl)-1-methyl-N^6-(1,2,3,4-tetrahydroisoquinoline-7-yl)-1H-pyrazolo[3,4-d]pyrimidine-3,6-diamine]",–,832
"Cn1nc(Nc2c(F)cccc2F)c2cnc(Nc3ccc4c(c3)CNCC4)nc21 [Example 42, N^3-(2,6-difluorophenyl)-1-methyl-N^6-(1,2,3,4-tetrahydroisoquinoline-7-yl)-1H-pyrazolo[3,4-d]pyrimidine-3,6-diamine]",–,397
"Cc1ccc(C)c(Nc2nn(C)c3nc(Nc4ccc5c(c4)CNCC5)ncc23)c1 [Example 45, N^3-(2,5-dimethylphenyl)-1-methyl-N^6 (1,2,3,4-tetrahydroisoquinoline-7-yl)-1H-pyrazolo[3,4-d]pyrimidine-3,6-diamine]",–,720
"Cc1ccc(C(=O)Nc2cccc(C(F)(F)F)c2)cc1Nc1nn(C)c2nc(Nc3ccc4c(c3)CNCC4)ncc12 [Example 52, 4-methyl-3-(1-methyl-6-(1,2,3,4-tetrahydroisoquinoline-7-ylamino)-1H-pyrazolo[3,4-d]pyrimidine-3-ylamino)-N-(3-(trifluoromethyl)phenyl)benzamide]",–,83.2
"Cc1ccc(NC(=O)Nc2cccc(C(F)(F)F)c2)cc1Nc1nn(C)c2nc(Nc3ccc4c(c3)CNCC4)ncc12 [Example 57, 1-(4-methyl-3-((1-methyl-6-((1,2,3,4-tetrahydroisoquinoline-7-yl)amino)-1H-pyrazolo[3,4-d]pyrimidine-3-yl)amino)phenyl)-3-(3-(trifluoromethyl)phenyl)urea]",–,221
"Cc1cccc(C)c1Nc1nn(C)c2nc(Nc3ccc4c(c3)CN(C)C(C)(C)C4)ncc12 [Example 66, N3-(2,6-dimethylphenyl)-1-methyl-N 6-(2,3,3-trimethyl-1,2,3,4-tetrahydroisoquinoline-7-yl)-1H-pyrazolo[3,4-d]pyrimidine-3,6-diamine]",–,28.5
"Cc1cccc(C)c1Nc1nn(C)c2nc(Nc3ccc4c(c3)C(C)N(C)C(C)(C)C4)ncc12 (centres unmarked) [Example 67, N3-(2,6-dimethylphenyl)-1-methyl-N 6-(1,2,3,3-tetramethyl-1,2,3,4-tetrahydroisoquinoline-7-yl)-1H-pyrazolo[3,4-d]pyrimidine-3,6-diamine]",–,23.6
"CC(=O)N1Cc2cc(Nc3ncc4c(Nc5c(C)cccc5C)nn(C)c4n3)ccc2C(C)(C)C1 [Example 68, 1-(7-((3-((2,6-dimethylphenyl)amino)-1-methyl-1H-pyrazolo[3,4-d]pyrimidine-6-yl)amino)-4,4-dimethyl-3,4-dihydroisoquinoline-2(1H)-yl)ethane-1-one]",–,121
"CC(=O)N1CCc2ccc(Nc3ncc4c(Nc5c(C)cccc5C)nn(C)c4n3)cc2C1C(C)C (centres unmarked) [Example 70, 1-(7-((3-((2,6-dimethylphenyl)amino)-1-methyl-1H-pyrazolo[3,4-d]pyrimidine-6-yl)amino)-1-isopropyl-3,4-dihydroisoquinoline-2(1H)-yl) ethane-1-one]",–,24.5
"CC(=O)N1Cc2cc(Nc3ncc4c(Nc5c(C)cccc5C)nn(C)c4n3)ccc2CC1(C)C [Example 71, 1-(7-((3-((2,6-dimethylphenyl)amino)-1-methyl-1H-pyrazolo[3,4-d]pyrimidine-6-yl)amino)-3,3-dimethyl-3,4-dihydroisoquinoline-2(1H)-yl)ethane-1-one]",–,114
"CC(=O)N1Cc2ccc(Nc3ncc4c(Nc5c(C)cccc5C)nn(C)c4n3)cc2C1 [Example 72, 1-(5-((3-((2,6-dimethylphenyl)amino)-1-methyl-1H-pyrazolo[3,4-d]pyrimidine-6-yl)amino)isoindolin-2-yl)ethane-1-one]",–,266
"Cc1cccc(C)c1Nc1nn(C)c2nc(Nc3ccc4c(c3)CN(C)C4)ncc12 [Example 74, N3-(2,6-dimethylphenyl)-1-methyl-N 6-(2-methylisoindolin-5-yl)-1H-pyrazolo[3,4-d]pyrimidine-3,6-diamine]",–,358
"Cc1cccc(C)c1Nc1nn(C)c2nc(Nc3ccc4c(c3)CCCC4)ncc12 [Example 75, N3-(2,6-dimethylphenyl)-1-methyl-N 6-(5,6,7,8-tetrahydronaphthalen-2-yl)-1H-pyrazolo[3,4-d]pyrimidine-3,6-diamine]",–,667
"C=CC(=O)Nc1ccc(Nc2ncc3c(Nc4c(C)cccc4C)nn(C)c3n2)cc1 [Example 76, N-(4-((3-((2,6-dimethylphenyl)amino)-1-methyl-1H-pyrazolo[3,4-d]pyrimidine-6-yl)amino)phenyl)acrylamide]",–,75.2
"Cc1cccc(C)c1Nc1nn(C)c2nc(Nc3ccc4c(c3)C(=O)NCC4)ncc12 [Example 77, 7-((3-((2,6-dimethylphenyl)amino)-1-methyl-1H-pyrazolo[3,4-d]pyrimidine-6-yl)amino)-3,4-dihydroisoquinoline-1(2H)-one]",–,146
"COCCOc1cc(C)c(Nc2nn(C)c3nc(Nc4ccc5c(c4)C(C(C)C)NCC5)ncc23)c(C)c1 (centres unmarked) [Example 78, N6-(1-isopropyl-1,2,3,4-tetrahydroisoquinoline-7-yl)-N 3-(4-(2-methoxyethoxy)-2,6-dimethylphenyl)-1-methyl-1H-pyrazolo[3,4-d]pyrimidine-3,6-diamine]",–,26.2
"COCCOc1cc(C)c(Nc2nn(C)c3nc(Nc4ccc5c(c4)C(C)(C)NCC5)ncc23)c(C)c1 [Example 79, N6-(1,1-dimethyl-1,2,3,4-tetrahydroisoquinoline-7-yl)-N 3-(4-(2-methoxyethoxy)-2,6-dimethylphenyl)-1-methyl-1H-pyrazolo[3,4-d]pyrimidine-3,6-diamine]",–,13
